Each structure is given as a SMILES string. Read-outs that look alike come from different tables or passages of the source.

One test addresses T1, p38beta (Homo sapiens, UniProt Q15759).
T1 construct: purchased Reaction Biology Europe GmbH
Kind of test: PanQinase kinase panel: p38beta. The note with it: read-out: INHIBITORY EFFECT @ 1 uM: p38beta. The format is biochemical. The procedure: (§1) Screening procedures were performed in accordance with the company's on-line protocol [accessed on-line Mar.
(§2) For each kinase, the median value of the cpm of three wells was defined as “low control” (n=3). This value reflects unspecific binding of radioactivity to the plate in the absence of a protein kinase but in the presence of the substrate. Additionally, for each kinase the median value of the cpm of three other wells was taken as the “high control,” i.e. full activity in the absence of any inhibitor (n=3). The difference between high and low control of each enzyme was taken as 100% activity.
(§3) As part of the data evaluation the low control of each kinase was subtracted from the high control value as well as from their corresponding “compound values”. The residual activity (in %) for each compound well was calculated by using the following formula: Res. Activity (%)=100×[(signal of compound−low control)/(high control−low control)].

For another test, the target named is T2, FGFR3 (Homo sapiens, UniProt P22607).
T2 construct: purchased Reaction Biology Europe GmbH
T2 sequence (P22607 23-806): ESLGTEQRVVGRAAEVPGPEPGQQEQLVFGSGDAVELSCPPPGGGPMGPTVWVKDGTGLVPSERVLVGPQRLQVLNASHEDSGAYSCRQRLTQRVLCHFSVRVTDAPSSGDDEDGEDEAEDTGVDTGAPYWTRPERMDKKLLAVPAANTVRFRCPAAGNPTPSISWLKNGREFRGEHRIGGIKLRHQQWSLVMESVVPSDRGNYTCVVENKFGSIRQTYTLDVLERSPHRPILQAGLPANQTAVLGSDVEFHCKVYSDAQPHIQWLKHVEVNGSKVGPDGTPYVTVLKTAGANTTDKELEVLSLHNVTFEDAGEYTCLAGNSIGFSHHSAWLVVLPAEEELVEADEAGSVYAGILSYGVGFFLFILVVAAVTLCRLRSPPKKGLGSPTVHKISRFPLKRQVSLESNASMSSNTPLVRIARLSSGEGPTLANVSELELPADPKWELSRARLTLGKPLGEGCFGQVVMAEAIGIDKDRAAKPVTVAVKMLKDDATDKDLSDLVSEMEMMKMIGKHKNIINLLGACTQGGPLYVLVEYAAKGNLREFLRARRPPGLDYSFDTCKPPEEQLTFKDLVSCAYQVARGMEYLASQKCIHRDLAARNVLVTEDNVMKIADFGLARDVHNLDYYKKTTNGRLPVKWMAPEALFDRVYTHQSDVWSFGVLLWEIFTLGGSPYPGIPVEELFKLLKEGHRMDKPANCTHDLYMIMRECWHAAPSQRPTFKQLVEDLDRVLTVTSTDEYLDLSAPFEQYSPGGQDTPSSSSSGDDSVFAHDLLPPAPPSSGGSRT
Kind of test: PanQinase kinase panel: FGFR3. The format is biochemical. Conditions: read-out: INHIBITORY EFFECT @ 1 uM: FGFR3. On the procedure: as §1, §2, §3

Test [1] has as its target T3, BTK (Bruton tyrosine kinase) (Homo sapiens, UniProt Q06187).
T3 construct: GST or His (the text leaves open which); purchased Reaction Biology Europe GmbH Lot 012,11; host or cells: Sf9 insect cells or E. coli (not resolved)
Kind of test: BTK screening assay (33PanQinase Activity Assay, radiometric). The note with it: Inhibition of BTK, radiometric 33PanQinase Activity Assay, 3 μM ATP, 10 concentrations in singlicate, top 10 μM; read-out: 33PanQinase ® Radiometric IC50. The test is classed as biochemical.

A further test has as its target CXCR4 (Homo sapiens, UniProt P61073). Put plainly: Chemokine (CXCL12-AF647) binding inhibition assay, Jurkat cells expressing CXCR4. Conditions: CXCL12-AF647 25 ng/ml, read-out: IC50 CXCL-12 binding Jurkat. The procedure, abridged:
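Jurkat cells preincubated 15 min at RT with compounds in HBSS/20 mM HEPES/0.2% BSA, pH 7.4, then exposed to CXCL12-AF647 (25 ng/ml) for 30 min at RT; washed, fixed and read by flow cytometry (FL4). Inhibition calculated from MFI normalised to unlabeled and ligand-only controls.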

The next test deals with T98G. Kind of test: Glioblastoma multiforme cell proliferation assay (CellTiter Glo), T98G. The test is classed as cell-based. Conditions: Homo sapiens; for Emax: read-out: GBM-T-98G Cell Proliferation Emax %. The procedure:
Inhibition of glioblastoma multiforme cell proliferation by compounds of the present invention was evaluated in U-87 MG (ATCC; Cat. No. HTB-14; Lot. No. 5018014) and T98G (ATCC; Cat. No. CRL-1690; Lot. No. 58267513) cell lines. These are adherent cell lines isolated from glioblastoma multiforme/malignant glioma, which express both CXCR4 and BTK (see Zhou et al. 2002 and Yue et al. 2017).
Cell viability was analyzed with the CellTiter Glo Cell assay kit ([…], Cat. No. G7573, Lot. No. 0000474103), according to the manufacturer's instruction.
U-87 MG and T98G cells were seeded onto 384-well opaque-walled clear bottom plates (Corning, Cat. No. 3765, Lot. No. 34319047) in EMEM (Invitrogen, Cat. No. 11095-080; Lot. No. 2276656) supplemented with 10% FBS (Invitrogen, Cat. No. 10099-141C, Lot. No. 2145169CP), at a seeding density of 1000 or 1200 cells per well, respectively, and then incubated in 5% CO2 at 37° C. overnight.
Compounds were prepared as stock solutions of 30 mM in DMSO (Sigma, Cat. No. 276855-1L. Lot. No. SHBL5610). Compounds were added to the cells, with 10 dose points in duplicates, in 3-fold dilution from a top concentration of 30 μM (final DMSO concentration […]), and incubated in 5% CO2 at 37° C. for 96 hr.
The 384-well plates were equilibrated at room temperature for approximately 30 min. 25 μl of CellTiter-Glo® Reagent was added to each well and mixed for 10 min on an orbital shaker to induce cell lysis. The 384-well plates were incubated at room temperature for 10 min to stabilize luminescent signal. Luminescence was detected on a PerkinElmer EnVision Multimode Plate Reader (measurement time 0.1s) as relative luminescence units (RLU).
(In ATP-based viability assays light output follows the ATP content of the culture.)

The mark [2] stands for this setting: Table 6A, cell viability, 96 hr, read-out: T98G IC50.

Chain of CXCR4 (P61073 whole entry): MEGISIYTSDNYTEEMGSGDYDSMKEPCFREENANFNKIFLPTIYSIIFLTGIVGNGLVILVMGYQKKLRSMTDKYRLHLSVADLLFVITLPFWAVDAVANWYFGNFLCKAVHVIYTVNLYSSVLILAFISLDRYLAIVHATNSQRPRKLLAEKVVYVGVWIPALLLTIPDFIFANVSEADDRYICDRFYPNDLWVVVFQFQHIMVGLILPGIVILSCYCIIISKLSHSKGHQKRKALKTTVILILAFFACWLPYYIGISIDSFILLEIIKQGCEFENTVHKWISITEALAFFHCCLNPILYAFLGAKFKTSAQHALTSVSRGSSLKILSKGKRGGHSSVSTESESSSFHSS
T3 sequence (Q06187 whole entry): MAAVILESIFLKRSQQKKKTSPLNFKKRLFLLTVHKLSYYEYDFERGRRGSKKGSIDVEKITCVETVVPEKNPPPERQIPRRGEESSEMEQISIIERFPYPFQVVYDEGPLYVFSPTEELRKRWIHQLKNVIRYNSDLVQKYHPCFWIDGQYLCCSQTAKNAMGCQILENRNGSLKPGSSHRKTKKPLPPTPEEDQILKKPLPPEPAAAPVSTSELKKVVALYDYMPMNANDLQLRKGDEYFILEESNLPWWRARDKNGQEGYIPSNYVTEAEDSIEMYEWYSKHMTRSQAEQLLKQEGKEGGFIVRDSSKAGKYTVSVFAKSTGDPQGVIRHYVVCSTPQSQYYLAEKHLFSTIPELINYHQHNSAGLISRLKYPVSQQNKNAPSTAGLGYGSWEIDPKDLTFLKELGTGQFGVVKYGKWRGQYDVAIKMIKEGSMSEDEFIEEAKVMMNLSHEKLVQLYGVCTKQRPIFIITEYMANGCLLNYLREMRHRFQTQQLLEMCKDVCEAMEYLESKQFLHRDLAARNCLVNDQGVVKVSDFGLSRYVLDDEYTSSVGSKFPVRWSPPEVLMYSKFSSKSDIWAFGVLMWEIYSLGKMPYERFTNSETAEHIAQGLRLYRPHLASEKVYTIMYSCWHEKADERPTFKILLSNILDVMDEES
T1 sequence (Q15759 whole entry): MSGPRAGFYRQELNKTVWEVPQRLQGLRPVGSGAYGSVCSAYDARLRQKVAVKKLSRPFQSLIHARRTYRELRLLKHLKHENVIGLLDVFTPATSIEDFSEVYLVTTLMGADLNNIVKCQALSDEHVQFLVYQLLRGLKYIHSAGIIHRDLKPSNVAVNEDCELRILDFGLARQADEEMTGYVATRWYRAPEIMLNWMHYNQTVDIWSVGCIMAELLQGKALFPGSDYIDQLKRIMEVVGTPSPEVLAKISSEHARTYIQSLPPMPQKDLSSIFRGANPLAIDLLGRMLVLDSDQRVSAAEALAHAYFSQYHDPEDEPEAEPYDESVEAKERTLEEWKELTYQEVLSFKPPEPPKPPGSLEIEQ

Take `O=C(c1ccc(Oc2ccccc2)cc1Cl)c1c[nH]c2ncnc(N[C@@H]3CC[C@@H](CO)OC3)c12` [ARQ-531, (2-chloro-4-phenoxyphenyl) (4-(((3R,6S)-6-(hydroxymethyl)tetrahydro-2H-pyran-3-yl)amino)-7H-pyrrolo[2,3-d]pyrimidin-5-yl) methanone]: the inhibition at 1 µM at p38beta was in the range of 70 to 89%; at FGFR3 it was 50 to 69%.

As for `Cc1cccnc1[C@H]1CCC[C@@H](c2ncccc2C)N1CCN1CCN(C(=O)c2ccc(-c3cc4c(-c5cccc(NC(=O)c6ccccc6)c5C)ncnc4[nH]3)cc2)CC1` [Compound I-10, N-(3-(6-(4-(4-(2-((2R,6S)-2,6-bis(3-methylpyridin-2-yl)piperidin-1-yl)ethyl)piperazine-1-carbonyl)phenyl)-7H-pyrrolo[2,3-d]pyrimidin-4-yl)-2-methylphenyl)benzamide], the inhibition at 1 µM on p38beta and at FGFR3 was below 50% throughout. In addition, the IC50 in test [1] was 1 to 100 nM; on CXCR4, 1 to 100 nM; in the test with T98G (read-out: GBM-T-98G Cell Proliferation IC50 uM), 2.66 µM. Also, in the test on T98G (Table 6B), the Emax came to 93%.

Regarding `Cc1cc(-c2ccnc(Nc3cnn(CCN4[C@@H](c5ncccc5C)CCC[C@H]4c4ncccc4C)c3)n2)ccc1CNC(=O)N1CC(OC(C)C)C1` [Compound I-11], the IC50 in test [1] was 1 to 100 nM; on CXCR4 it was 1 to 100 nM; in the test on T98G (Table 6B, read-out: GBM-T-98G Cell Proliferation IC50) it was 3.28 µM. Also, the Emax with T98G (Table 6B) was found to be 98%.

On to `Cc1cccnc1[C@H]1CCC[C@@H](c2ncccc2C)N1CCCCNC(=O)[C@@H]1CC[C@@H](Nc2ncnc3[nH]cc(C(=O)c4ccc(Oc5ccccc5)cc4Cl)c23)CO1` [Compound I-16], for which the IC50 in test [1] is 1 to 100 nM; on CXCR4, 1 to 100 nM; in the test on T98G (setting [2]), 2.2 µM.

On to `Cc1cccnc1[C@H]1CCC[C@@H](c2ncccc2C)N1CCCCNC(=O)OC[C@@H]1CC[C@@H](Nc2ncnc3[nH]cc(C(=O)c4ccc(Oc5ccccc5)cc4Cl)c23)CO1` [Compound I-18], for which the figures for the IC50 (in test [1]; on CXCR4; with T98G (setting [2])) were 1 to 100 nM, 100 to 1000 nM and 2.4 µM, respectively.

Consider `COc1ccc(F)cc1C(=O)NCc1ccc(-c2nn([C@@H](C)C(F)(F)F)c(N)c2C(N)=O)cc1` [LOXO-305, pirtobrutinib], for which the inhibition at 1 µM at p38beta and at FGFR3 was below 50% each time.

`C=CC(=O)N1CCC([C@@H]2CCNc3c(C(N)=O)c(-c4ccc(Oc5ccccc5)cc4)nn32)CC1` [Zanubrutinib, (7S)-2-(4-phenoxyphenyl)-7-(1-prop-2-enoylpiperidin-4-yl)-4,5,6,7-tetrahydropyrazolo[1,5-a]pyrimidine-3-carboxamide]: the inhibition at 1 µM on p38beta and on FGFR3 was below 50% throughout.

The values above are taken from patent US20250326753A1, “DUAL CXCR4-BTK INHIBITORS” (X4 Pharmaceuticals, Inc., priority 2022, published 2025).
